Test results from ChEMBL document CHEMBL1201862, “PubChem BioAssay data set” (2004).
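Grown in 96-well plates, cells were treated for 48 hours with each compound at five concentrations. Insufficient inhibition: endpoint recorded as highest concentration tested. GI50 = concentration required for 50% inhibition of growth.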 Active and inactive are the calls of the source. Rule as the data show it: active = GI50 up to about 1.1 µM and inactive = higher.

Experiments:
Assay in all cases: NCI tumour cell line growth inhibition, 48 h
786-0 = tested on: 786-0
A498 = tested on: A498
A549 = tested on: A549
ACHN = tested on: ACHN
BT-549 = tested on: BT-549
CAKI-1 = tested on: CAKI-1
CCRF-CEM = tested on: CCRF-CEM
COLO 205 = tested on: COLO 205
DU-145 = tested on: DU-145
EKVX = tested on: EKVX
HCC 2998 = tested on: HCC 2998
HCT-116 = tested on: HCT-116
HCT-15 = tested on: HCT-15
HOP-62 = tested on: HOP-62
HOP-92 = tested on: HOP-92
HT-29 = tested on: HT-29
IGROV-1 = tested on: IGROV-1
K562 = tested on: K562
KM12 = tested on: KM12
LOX IMVI = tested on: LOX IMVI
M14 = tested on: M14
MCF7 = tested on: MCF7
MDA-MB-231 = tested on: MDA-MB-231
MDA-MB-435 = tested on: MDA-MB-435
MDA-N = tested on: MDA-N
MOLT-4 = tested on: MOLT-4
Malme-3M = tested on: Malme-3M
NCI-H226 = tested on: NCI-H226
NCI-H23 = tested on: NCI-H23
NCI/ADR-RES = tested on: NCI/ADR-RES
OVCAR-3 = tested on: OVCAR-3
OVCAR-5 = tested on: OVCAR-5
OVCAR-8 = tested on: OVCAR-8
PC-3 = tested on: PC-3
RPMI-8226 = tested on: RPMI-8226
RXF 393 = tested on: RXF 393
SF-268 = tested on: SF-268
SF-295 = tested on: SF-295
SF-539 = tested on: SF-539
SK-MEL-28 = tested on: SK-MEL-28
SK-MEL-2 = tested on: SK-MEL-2
SK-MEL-5 = tested on: SK-MEL-5
SK-OV-3 = tested on: SK-OV-3
SN12C = tested on: SN12C
SNB-75 = tested on: SNB-75
SW-620 = tested on: SW-620
T47D = tested on: T47D
TK-10 = tested on: TK-10
U-251 = tested on: U-251
UACC-257 = tested on: UACC-257
UACC-62 = tested on: UACC-62
NCI-H460 = tested on: NCI-H460
NCI-H522 = tested on: NCI-H522
OVCAR-4 = tested on: OVCAR-4
SNB-19 = tested on: SNB-19
UO-31 = tested on: UO-31

For `O=C1C2=Cc3ccccc3OC2(O)Oc2ccc(O)cc21` (configuration not stated), the GI50 (786-0) was > 100 µM (inactive), the GI50 (A498) was > 100 µM (inactive) and the GI50 (A549) was 53.6 µM (inactive). For the same molecule, the GI50 (ACHN) was 15.8 µM (inactive), the GI50 (BT-549) was 4.71 µM (inactive) and the GI50 (CAKI-1) was 48.4 µM (inactive). For the same molecule, the GI50 (CCRF-CEM) was 7.83 µM (inactive), the GI50 (COLO 205) was 40.8 µM (inactive) and the GI50 (DU-145) was > 100 µM (inactive). The GI50 (EKVX) was > 100 µM (inactive), the GI50 (HCC 2998) was > 100 µM (inactive) and the GI50 (HCT-116) was > 100 µM (inactive). For the same molecule, the GI50 (HCT-15) was 38.6 µM, the GI50 (HOP-62) was 57.1 µM (inactive) and the GI50 (HOP-92) was 46.8 µM (inactive). For the same molecule, the GI50 (HT-29) was > 100 µM (inactive), the GI50 (IGROV-1) was 56.4 µM (inactive) and the GI50 (K562) was 28.1 µM (inactive). The GI50 (KM12) was > 100 µM (inactive), the GI50 (LOX IMVI) was > 100 µM (inactive) and the GI50 (M14) was > 100 µM (inactive). The GI50 (MCF7) was > 100 µM (inactive), the GI50 (MDA-MB-231) was > 100 µM (inactive) and the GI50 (MDA-MB-435) was > 100 µM (inactive). The GI50 (MDA-N) was > 100 µM (inactive), the GI50 (MOLT-4) was 62.5 µM (inactive) and the GI50 (Malme-3M) was 91.2 µM (inactive). For the same molecule, the GI50 (NCI-H226) was > 100 µM (inactive), the GI50 (NCI-H23) was 84.1 µM (inactive) and the GI50 (NCI/ADR-RES) was 49.9 µM (inactive). For the same molecule, the GI50 (OVCAR-3) was 36.7 µM (inactive), the GI50 (OVCAR-5) was > 100 µM (inactive) and the GI50 (OVCAR-8) was 69.5 µM (inactive). The GI50 (PC-3) was 73.3 µM (inactive), the GI50 (RPMI-8226) was 23.1 µM (inactive) and the GI50 (RXF 393) was > 100 µM (inactive). For the same molecule, the GI50 (SF-268) was > 100 µM (inactive), the GI50 (SF-295) was > 100 µM (inactive) and the GI50 (SF-539) was > 100 µM (inactive). The GI50 (SK-MEL-28) was > 100 µM (inactive), the GI50 (SK-MEL-2) was > 100 µM (inactive) and the GI50 (SK-MEL-5) was 44.1 µM (inactive). For the same molecule, the GI50 (SK-OV-3) was > 100 µM (inactive), the GI50 (SN12C) was > 100 µM (inactive) and the GI50 (SNB-75) was 35.9 µM (inactive). For the same molecule, the GI50 (SW-620) was > 100 µM (inactive), the GI50 (T47D) was > 100 µM (inactive) and the GI50 (TK-10) was > 100 µM (inactive). The GI50 (U-251) was > 100 µM (inactive), the GI50 (UACC-257) was > 100 µM (inactive) and the GI50 (UACC-62) was 61.8 µM (inactive).
In the case of `COc1ccc(N2C(=O)CC(=O)N(C(=O)COc3ccc(OCC(=O)N4C(=O)CC(=O)N(c5ccc(OC)cc5)C4=S)cc3)C2=S)cc1`, the GI50 (786-0) is reported as 36.5 µM (inactive), the GI50 (A498) is reported as 61.7 µM (inactive) and the GI50 (A549) is reported as 35.8 µM (inactive). For the same molecule, the GI50 (ACHN) was 42.1 µM (inactive), the GI50 (BT-549) was 50.1 µM (inactive) and the GI50 (CAKI-1) was 0.718 µM (active). For the same molecule, the GI50 (COLO 205) was 18.9 µM (inactive), the GI50 (DU-145) was 49.9 µM (inactive) and the GI50 (EKVX) was 92.9 µM (inactive). For the same molecule, the GI50 (HCC 2998) was 32.3 µM (inactive), the GI50 (HCT-116) was 15.7 µM (inactive) and the GI50 (HCT-15) was 48.6 µM. For the same molecule, the GI50 (HOP-92) was 40.9 µM (inactive), the GI50 (HT-29) was 47.8 µM (inactive) and the GI50 (IGROV-1) was 47.9 µM (inactive). For the same molecule, the GI50 (K562) was 41.4 µM (inactive), the GI50 (KM12) was 15.6 µM (inactive) and the GI50 (M14) was 54.5 µM (inactive). The GI50 (MCF7) was 31.1 µM (inactive), the GI50 (MDA-MB-231) was 30.3 µM (inactive) and the GI50 (MDA-MB-435) was 36.9 µM (inactive). The GI50 (MDA-N) was 37.8 µM (inactive), the GI50 (MOLT-4) was 32 µM (inactive) and the GI50 (Malme-3M) was 68.2 µM (inactive). For the same molecule, the GI50 (NCI-H226) was 30.5 µM (inactive), the GI50 (NCI-H23) was 38.1 µM (inactive) and the GI50 (NCI-H460) was 25.7 µM (inactive). The GI50 (NCI-H522) was 35.5 µM (inactive), the GI50 (NCI/ADR-RES) was 66.4 µM (inactive) and the GI50 (OVCAR-4) was 27 µM (inactive). For the same molecule, the GI50 (OVCAR-5) was > 100 µM (inactive), the GI50 (PC-3) was 41 µM (inactive) and the GI50 (RPMI-8226) was 19.6 µM (inactive). For the same molecule, the GI50 (RXF 393) was 23.7 µM (inactive), the GI50 (SF-268) was 35.4 µM (inactive) and the GI50 (SF-295) was 36.8 µM (inactive). For the same molecule, the GI50 (SK-MEL-28) was 48.1 µM (inactive), the GI50 (SK-MEL-2) was 23.9 µM (inactive) and the GI50 (SK-MEL-5) was 36.8 µM (inactive). For the same molecule, the GI50 (SK-OV-3) was 29.2 µM (inactive), the GI50 (SN12C) was 43.3 µM (inactive) and the GI50 (SNB-19) was 40.3 µM (inactive). The GI50 (SNB-75) was 54 µM (inactive), the GI50 (SW-620) was 40.1 µM (inactive) and the GI50 (TK-10) was 44.3 µM (inactive). The GI50 (U-251) was 37.1 µM (inactive), the GI50 (UACC-257) was 43.9 µM (inactive) and the GI50 (UACC-62) was 29.2 µM (inactive). For the same molecule, the GI50 (UO-31) was 42.5 µM (inactive).
With `CNc1ccc(C(=O)CC(O)CCC(C)C2OC(=O)CC(O)CC(=O)CC(O)CC(O)CC(O)CC(O)CC3(O)CC(O)C(C(=O)NCCN4CCOCC4)C(CC(OC4OC(C)C(O)C(N)C4O)\C=C/C=C\C=C/C=C/C=C/C=C\C=C/C2C)O3)cc1` (configuration not stated) the GI50 (786-0) was 1.01 µM (active), the GI50 (A498) was 0.321 µM (active) and the GI50 (BT-549) was 1.64 µM (inactive). The GI50 (HCT-116) was > 100 µM (inactive), the GI50 (HOP-92) was > 100 µM (inactive) and the GI50 (IGROV-1) was 6.34 µM (inactive). For the same molecule, the GI50 (KM12) was 2.84 µM (inactive), the GI50 (MDA-MB-435) was 1.56 µM (inactive) and the GI50 (MDA-N) was 0.701 µM (active). The GI50 (MOLT-4) was 2.3 µM (inactive), the GI50 (Malme-3M) was 0.267 µM (active) and the GI50 (NCI-H226) was 3.81 µM (inactive). The GI50 (NCI-H522) was 0.493 µM (active), the GI50 (OVCAR-4) was 2.74 µM (inactive) and the GI50 (OVCAR-8) was 4.23 µM (inactive). For the same molecule, the GI50 (RXF 393) was > 100 µM (inactive), the GI50 (SF-539) was 16 µM (inactive) and the GI50 (SK-MEL-2) was 6.43 µM (inactive). The GI50 (SN12C) was 0.417 µM (active), the GI50 (SNB-19) was > 100 µM (inactive) and the GI50 (SNB-75) was > 100 µM (inactive). The GI50 (SW-620) was > 100 µM (inactive), the GI50 (T47D) was > 100 µM (inactive) and the GI50 (TK-10) was 1.52 µM (inactive). The GI50 (UACC-257) was 0.537 µM (active), the GI50 (UACC-62) was 1.68 µM (inactive) and the GI50 (UO-31) was 0.404 µM (active).
